Consider 1 molecule from patent US20110105436A1, “HETEROARYL COMPOUNDS, COMPOSITIONS, AND METHODS OF USE IN CANCER TREATMENT” (AUCKLAND UNISERVICES LIMITED, priority 2008, published 2011).

One data set deals with RCC4/VHL cells. Briefly: XTT assay, RCC4/VHL versus RCC4 cells (selectivity ratio). In kind it is cell-based. In short, it runs like this:
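RCC4 cells with or without VHL (5000/well) exposed to serially diluted compounds for four days. Viability read as XTT metabolism (0.3 mg/ml XTT plus PMS, 1-2 h, 37 °C) at 450 nm. Ratio is IC50 in RCC4/VHL over IC50 in RCC4.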
Background: Tetrazolium assays rely on reduction of a dye to a coloured formazan, in cell work by metabolically active cells.

For a further data set, the system named is RCC4 and RCC4/VHL cells. Briefly: DNA damage: comet assay and p53 immunoblot. The format is cell-based. The method, then: B. XTT assay in RCC4 and RCC4/VHL in presence of STF-62247 (0-40 μM). Each point of the cell survival is calculated by the average of three different experiments in duplicate as the percent of treated on untreated plate. The error bars are represented as the standard error of the mean (SEM) C. qRT-PCR for Glutl, VEGF, PDF and PGK in RCC4 cells with or without HIF-1a, HIF-2a shRNA and in RCC4/VHL. D. Hoescht staining in RCC4 and RCC4/VHL cells with 1.25 μM of STF-62247 for 2 days. Camptothecin was used as positive control E. FACS analysis for apoptosis after an annexin V-FITC staining in presence or absence of propidium iodine (PI) in cells after a treatment in same conditions than in C. F. Immunoblot for active caspase-3 in RCC4 and RCC4/VHL following treatment with 1.25 μM of STF-62247 for 24 hours. Staurosporine was used as positive control (0.2 μM for 24 hours). G,H. Immunostaining of caspase-3 and Ki67 respectively in SN12C and SN12C+shVHL tumor samples untreated or treated with 30 μM of STF-62247.1. Immunoblot for p53 and SerlS phospho-p53 in RCC4 and RCC4/VHL cells after a treatment with 1.25 μM of STF-62247 or doxorubicin for 24 hours.
(In general: In western blotting, separated proteins are transferred to a membrane and probed.)

On to `Cc1cccc(Nc2nc(-c3ccncc3)cs2)c1` [Compound 5, N-(3-Methylphenyl)-4-(4-pyridinyl)-1,3-thiazol-2-amine], for which, in the data set on RCC4/VHL cells (Table 1, selectivity ratio, IC50 in RCC4/VHL cells/IC50 in RCC4 cells), the Ratio came out at 19. Moreover, in the data set on RCC4/VHL cells (structure-activity text on Tables 1 and 2), the “IC50 ratio (wild-type VHL/VHL-deficient cells)” value is on record as “high IC50 ratio”. The “phosphorylation of p53 on serine 15 and total p53 levels” value in the data set on RCC4 and RCC4/VHL cells (1.25 μM, 24 hours, FIG. 7I) is reported as “unaffected”. In addition, the “DNA damage by comet assay” value in the data set with RCC4 and RCC4/VHL cells (data not shown) was “did not induce DNA damage”.
